ChEMBL document CHEMBL1201862, “PubChem BioAssay data set” (2004)
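Interpolation was linear, between the two tested concentrations surrounding the appropriate level; five concentrations were tested over 48 hours in 96-well plates. GI50 is the concentration that inhibits growth by half.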 The source made the active and inactive calls. Rule as the data show it: active = GI50 up to about 1.1 µM and inactive = higher.

What was measured:
Assay in all cases: NCI anticancer screen, dose series, 48 h
MOLT-4 = tested on: MOLT-4
K562 = tested on: K562
SW-620 = tested on: SW-620
U-251 = tested on: U-251
HCT-116 = tested on: HCT-116
OVCAR-4 = tested on: OVCAR-4
SR = tested on: SR
EKVX = tested on: EKVX
SK-MEL-5 = tested on: SK-MEL-5
SF-268 = tested on: SF-268
PC-3 = tested on: PC-3
MCF7 = tested on: MCF7
M14 = tested on: M14
CAKI-1 = tested on: CAKI-1
MDA-MB-231 = tested on: MDA-MB-231
SNB-75 = tested on: SNB-75
DU-145 = tested on: DU-145
786-0 = tested on: 786-0
OVCAR-8 = tested on: OVCAR-8
SF-539 = tested on: SF-539

CC(=O)Nc1ccccc1C=C1c2ccccc2-c2ccccc21
GI50 (MOLT-4): 77.1 µM (inactive) | GI50 (K562): 51.9 µM (inactive) | GI50 (SW-620): > 100 µM (inactive) | GI50 (U-251): 23.2 µM (inactive) | GI50 (HCT-116): 29.7 µM (inactive) | GI50 (OVCAR-4): 27.9 µM (inactive) | GI50 (SR): 98.9 µM (inactive) | GI50 (EKVX): 38.8 µM (inactive) | GI50 (SK-MEL-5): 57.3 µM (inactive) | GI50 (SF-268): > 100 µM (inactive) | GI50 (PC-3): 41.8 µM (inactive) | GI50 (MCF7): 20.9 µM (inactive) | GI50 (M14): 36.7 µM (inactive) | GI50 (CAKI-1): 63 µM (inactive) | GI50 (MDA-MB-231): 17.7 µM (inactive) | GI50 (SNB-75): 17.9 µM (inactive) | GI50 (DU-145): 33.2 µM (inactive) | GI50 (786-0): 19.9 µM (inactive) | GI50 (OVCAR-8): 21.7 µM (inactive) | GI50 (SF-539): 13.2 µM (inactive)

CC(=O)OCC1=C2C(OC(=O)C(C)C)CC3(COC(C)=O)OC3/C=C\C3(C)OC3C2OC1=O (stereo not given)
GI50 (MOLT-4): > 100 µM (inactive) | GI50 (K562): > 100 µM (inactive) | GI50 (SW-620): > 100 µM (inactive) | GI50 (U-251): > 100 µM (inactive) | GI50 (HCT-116): > 100 µM (inactive) | GI50 (OVCAR-4): > 100 µM (inactive) | GI50 (SR): > 100 µM (inactive) | GI50 (EKVX): > 100 µM (inactive) | GI50 (SK-MEL-5): > 100 µM (inactive) | GI50 (SF-268): > 100 µM (inactive) | GI50 (PC-3): > 100 µM (inactive) | GI50 (MCF7): > 100 µM (inactive) | GI50 (M14): > 100 µM (inactive) | GI50 (CAKI-1): > 100 µM (inactive) | GI50 (MDA-MB-231): > 100 µM (inactive) | GI50 (SNB-75): > 100 µM (inactive) | GI50 (DU-145): > 100 µM (inactive) | GI50 (786-0): > 100 µM (inactive) | GI50 (OVCAR-8): > 100 µM (inactive) | GI50 (SF-539): > 100 µM (inactive)

CC1=C(C)C(=O)O[C@@H]([C@](C)(O)[C@]2(O)CC[C@@]3(O)[C@@H]4C[C@H](O)[C@]5(O)[C@@H](O)C=CC(=O)[C@]5(C)[C@H]4CC[C@]23C)C1
GI50 (MOLT-4): > 100 µM (inactive) | GI50 (K562): 67.3 µM (inactive) | GI50 (SW-620): > 100 µM (inactive) | GI50 (U-251): 89.9 µM (inactive) | GI50 (HCT-116): 86.9 µM (inactive) | GI50 (OVCAR-4): > 100 µM (inactive) | GI50 (SR): 31.3 µM (inactive) | GI50 (EKVX): > 100 µM (inactive) | GI50 (SK-MEL-5): > 100 µM (inactive) | GI50 (SF-268): > 100 µM (inactive) | GI50 (PC-3): > 100 µM (inactive) | GI50 (MCF7): 46.2 µM (inactive) | GI50 (M14): > 100 µM (inactive) | GI50 (CAKI-1): > 100 µM (inactive) | GI50 (MDA-MB-231): > 100 µM (inactive) | GI50 (SNB-75): 37.2 µM (inactive) | GI50 (DU-145): > 100 µM (inactive) | GI50 (786-0): > 100 µM (inactive) | GI50 (OVCAR-8): > 100 µM (inactive) | GI50 (SF-539): > 100 µM (inactive)

N=c1[nH]cnc2c1nnn2C1C=CC(COS(N)(=O)=O)C1 (stereo not given)
GI50 (MOLT-4): 15.6 µM (inactive) | GI50 (K562): 5.47 µM (inactive) | GI50 (SW-620): 11.6 µM (inactive) | GI50 (U-251): 4.15 µM (inactive) | GI50 (HCT-116): 5.24 µM (inactive) | GI50 (OVCAR-4): 6.84 µM (inactive) | GI50 (SR): 18 µM (inactive) | GI50 (EKVX): 28.9 µM (inactive) | GI50 (SK-MEL-5): 3.13 µM (inactive) | GI50 (SF-268): 10.7 µM (inactive) | GI50 (PC-3): 3.93 µM (inactive) | GI50 (MCF7): 10.4 µM (inactive) | GI50 (M14): 7 µM (inactive) | GI50 (CAKI-1): 1.25 µM (inactive) | GI50 (MDA-MB-231): 8.07 µM (inactive) | GI50 (SNB-75): 4.05 µM (inactive) | GI50 (DU-145): 7.08 µM (inactive) | GI50 (786-0): 2.19 µM (inactive) | GI50 (OVCAR-8): 2.38 µM (inactive) | GI50 (SF-539): 1.85 µM (inactive)

CCOC(=O)C1=C(N)N2C(=N[C@H]3CCCC[C@@H]32)N=C1
GI50 (MOLT-4): > 100 µM (inactive) | GI50 (K562): > 100 µM (inactive) | GI50 (SW-620): > 100 µM (inactive) | GI50 (U-251): > 100 µM (inactive) | GI50 (HCT-116): > 100 µM (inactive) | GI50 (OVCAR-4): 37 µM (inactive) | GI50 (SR): > 100 µM (inactive) | GI50 (EKVX): > 100 µM (inactive) | GI50 (SK-MEL-5): > 100 µM (inactive) | GI50 (SF-268): > 100 µM (inactive) | GI50 (PC-3): > 100 µM (inactive) | GI50 (MCF7): > 100 µM (inactive) | GI50 (M14): > 100 µM (inactive) | GI50 (CAKI-1): > 100 µM (inactive) | GI50 (MDA-MB-231): > 100 µM (inactive) | GI50 (SNB-75): 38.3 µM (inactive) | GI50 (DU-145): > 100 µM (inactive) | GI50 (786-0): > 100 µM (inactive) | GI50 (OVCAR-8): > 100 µM (inactive) | GI50 (SF-539): > 100 µM (inactive)

CCCOc1ccc(-c2nc(-c3ccc(/N=C/c4ccc(N(CCOS(C)(=O)=O)CCOS(C)(=O)=O)cc4C)cc3)cs2)cc1
GI50 (MOLT-4): 5.35 µM (inactive) | GI50 (K562): 22.5 µM (inactive) | GI50 (SW-620): 25.7 µM (inactive) | GI50 (U-251): 27.9 µM (inactive) | GI50 (HCT-116): 29.4 µM (inactive) | GI50 (OVCAR-4): 34.1 µM (inactive) | GI50 (SR): 3.85 µM (inactive) | GI50 (EKVX): 17.6 µM (inactive) | GI50 (SK-MEL-5): 27 µM (inactive) | GI50 (SF-268): 11.5 µM (inactive) | GI50 (PC-3): 18.5 µM (inactive) | GI50 (MCF7): 15.2 µM (inactive) | GI50 (M14): 16.8 µM (inactive) | GI50 (CAKI-1): 1.3 µM (inactive) | GI50 (MDA-MB-231): 34 µM (inactive) | GI50 (SNB-75): 2.78 µM (inactive) | GI50 (DU-145): 3.16 µM (inactive) | GI50 (786-0): 3.35 µM (inactive) | GI50 (OVCAR-8): 25.5 µM (inactive) | GI50 (SF-539): 12.1 µM (inactive)

COc1ccc([N+](=O)[O-])c2c(NCCCN(C)C)c3ccccc3nc12
GI50 (MOLT-4): 0.0326 µM (active) | GI50 (K562): 0.133 µM (active) | GI50 (SW-620): 0.0929 µM (active) | GI50 (U-251): 0.152 µM (active) | GI50 (HCT-116): 0.112 µM (active) | GI50 (OVCAR-4): 0.0354 µM (active) | GI50 (SR): < 0.01 µM (active) | GI50 (EKVX): 0.107 µM (active) | GI50 (SK-MEL-5): 0.106 µM (active) | GI50 (SF-268): 0.236 µM (active) | GI50 (PC-3): 0.0276 µM (active) | GI50 (MCF7): 0.0155 µM (active) | GI50 (M14): 0.183 µM (active) | GI50 (CAKI-1): 0.333 µM (active) | GI50 (MDA-MB-231): 0.466 µM (active) | GI50 (SNB-75): 0.222 µM (active) | GI50 (DU-145): 0.126 µM (active) | GI50 (786-0): 0.0778 µM (active) | GI50 (OVCAR-8): 0.288 µM (active) | GI50 (SF-539): 0.308 µM (active)
